# Patent US11161876B2, “Anti-inflammatory nanofibers” (Northwestern University, priority 2015, dated 2021)
# Entries after “also recorded” stand apart in the source; their conditions may differ. * marks the point of attachment. C16 alkyl = CCCCCCCCCCCCCCCC*
# Legend:
# Settings in all cases: 10 days post-augmentation; compared between groups
# [1] = tested on: Rat Bladder Augmentation Model; test: Blood vessel quantification in areas of bladder tissue regeneration; type: in vivo
# Procedure: (§1) Athymic female rats (weighing ˜200 g and 8-10 weeks old; National Cancer Institute Animal Production Program) underwent bladder augmentation (ref. 15; herein incorporated by reference in its entirety). Athymic rats were chosen for this study to solely examine the innate immune response to inflammation without influence of the adaptive immune response. In order to induce anesthesia, animals were given intraperitoneal injections of 60 mg/kg ketamine and 5 mg/kg xylazine. A second injection consisting of Buprenex (1 mg/kg) was administered subcutaneously to alleviate any pain/discomfort during and following surgical procedures. An approximate 1.5 cm midline vertical skin incision was created to expose the abdominal fascia and muscles. This was immediately followed by the separation of the wall leading to the identification of the bladder. An approximate 70% supratrigonal cystectomy was performed from anterior to posterior creating a clamshell. Immediately prior to bladder augmentation procedures, samples of the pro-inflammatory biological scaffold, small intestinal submucosa (SIS (0.5×0.5 cm); Cook Biotech.) (refs. 12,13,16; herein incorporated by reference in their entireties) were thoroughly dip-coated separately in one of the previously described AIF-PAs following gelation procedures. The sections of SIS were dip-coated for approximately 20 seconds and allowed to adhere to the SIS for an additional 30 seconds. Dip-coating procedures were performed at room temperature in air. The cystectomized bladder defect was then augmented with: 1) SIS (non-AIF-PA coated SIS; n=8 animals over both time-points); 2) AIF-PA1 coated SIS (denoted as SIS/AIF-PA1; n=11 animals over both time-points); 3) AIF-PA2 coated SIS (denoted as SIS/AIF-PA2; n=8 animals over both time-points); 4) AIF-PA3 coated SIS (denoted as SIS/AIF-PA3; n=3); 5) AIF-PA4 coated SIS (denoted as SIS/AIF-PA4; n=3 animals); 6) AIF-PA5 coated SIS (denoted as SIS/AIF-PA5; n=3 animals); and 7) AIFC-PA6 coated SIS (denoted as SIS/AIFC-PA6; n=9 animals over both time-points). The bladder was finally covered with omentum after being closed in a watertight manner utilizing 7-0 polyglactin suture. The abdominal wall was then closed in a single layer with 5-0 ethibond running suture and the skin re-approximated with 9 mm autoclips. Each group was sacrificed at 10 day and 5 week time-points.
# Trichrome sample images were opened with Adobe Photoshop CS3 and were initially characterized utilizing a Nikon Eclipse 50i Microscope in addition to Spot Advanced Imaging Software. Vessel numbers were quantified utilizing the pen tool based upon n=10 images per graft in regenerated areas. Individual vessels were selected manually and subsequently quantified using the image histogram tool to acquire pixel density for each vessel. Data is represented as mean number of vessels/mm^2 (means±SE).
# [2] = tested on: Rat Bladder Augmentation Model; test: Bladder tissue collagen quantification (Masson's Trichrome); type: in vivo
# Procedure: as §1
# Explanted bladder specimens encompassing the entire thickness of the bladder were isolated immediately following euthanasia and processed (ref. 15; herein incorporated by reference in its entirety). Specimens were fixed in a 10% buffered formalin phosphate (Fisher Scientific, Inc.) solution followed by a series of graded ethanol exchanges then embedded in paraffin (Fisher Scientific). Embedded tissues were sectioned onto glass slides at a thickness of 10 μm using a RM2125 RT Microtome (Leica) onto glass slides and subjected to staining with Masson's Trichrome (Sigma-Aldrich Corp.) reagent. The paraffin was removed from tissue containing slides using a hot plate at 62° C. for 6 minutes and was followed by treatment with xylenes, graded ethanol washes and DI water. Slides were placed in Bouin's solution (Sigma-Aldrich Corp.) for approximately 15 min then rinsed under running tap water. The samples were then stained 5 minutes with Hematoxylin and rinsed with running water and subsequently stained with Scarlet-Acid Fuchsin (Sigma-Aldrich Corp.). Slides were rinsed again with DI water and placed into a mixture of PTA/PMA, followed by Aniline Blue solution and a 1% acetic acid wash. Finally, slides were placed in 95-100% ethanol and rinsed in xylene. Following air drying, a coverslip was placed over the specimen sample and secured with Permaslip (Alban Scientific Inc).
# Bladder tissue specimens were evaluated for collagen content (refs. 13,15,17; herein incorporated by reference in their entireties). […]
# MPO+ neutrophils = test: Immunofluorescence quantification of MPO+ neutrophils in regenerated bladder tissue; type: in vivo, rat
# Procedure: as §1
# (§2) Tissue sections comprised of SIS alone, SIS/AIF-PA1, SIS/AIF-PA2, and SIS/AIF-PA6 augmentations were subjected to immunofluorescence staining by initially undergoing antigen retrieval which consisted of 15 min of boiling in citrate buffer (0.01M citrate solution, pH 6.0 with 0.05% Tween-20) followed by cooling at room temperature for approximately 20 minutes. The antibody staining process consisted of a blocking step for 15 min in bovine serum albumin (BSA, 5 mg/ml) followed by a 40 minutes incubation at room temperature with the primary antibody. After washing with DPBS, slides were incubated for 30 min with a secondary antibody and eventually rinsed with DPBS and air dried. Slides were mounted with Vectashield (Vector Laboratories). Primary antibodies were directed against epitopes for the inflammatory markers CD68 (macrophage) (refs. 18,19; herein incorporated by reference in their entireties) MPO (neutrophil) (ref. 20; herein incorporated by reference in its entirety) or the inflammation-related proteins IL1β, TNFα, IL-10, IL-13, CD206 (M2 macrophage) (refs. 21-25; herein incorporated by reference in their entireties) and CD86 (M1 macrophage) (ref. 26; herein incorporated by reference in its entirety). Antibodies directed against the ECM in regenerating bladder tissue (including COL4A3 and fibronectin) were also utilized. Alexa Red 555 or FITC conjugated secondary antibodies (Molecular Probes) were utilized for visualization (ref. 15; herein incorporated by reference in its entirety). […]
# CD68+ macrophages = test: Immunofluorescence quantification of CD68+ macrophages in regenerated bladder tissue; type: in vivo, rat
# Procedure: as §1, §2
Substance,"blood vessel formation, in words [1]","collagen levels, in words [2]","MPO+ neutrophil levels, in words (MPO+ neutrophils)","CD68+ macrophage levels, in words (CD68+ macrophages)"
"C16-VVVAAAEEEDPVKG (SEQ ID NO:5) ({C16 alkyl}-VVVAAAEEEDPVKG-NH2) [SIS/AIF-PA5, anti-inflammatory peptide amphiphile, tested dip-coated on small intestinal submucosa (SIS) scaffold]",least level of blood vessel formation; also recorded: not significantly different from those of control groups,not significantly different from those of control groups,,
"C16-VVVAAAEEEKVLDGQDP (SEQ ID NO:4) ({C16 alkyl}-VVVAAAEEEKVLDGQDP-NH2) [SIS/AIF-PA4, anti-inflammatory peptide amphiphile, tested dip-coated on small intestinal submucosa (SIS) scaffold]",greater numbers of vessels/mm2,lower mean collagen levels,significantly lower,significantly lower
"C16-VVVAAAEEEKVLDPVKG (SEQ ID NO:3) ({C16 alkyl}-VVVAAAEEEKVLDPVKG-NH2) [SIS/AIF-PA3, anti-inflammatory peptide amphiphile, tested dip-coated on small intestinal submucosa (SIS) scaffold]",greater numbers of vessels/mm2,lower mean collagen levels,,comparable macrophage levels to SIS/AIF-PA1; also recorded: significantly lower
